{"source": "ChEMBL document CHEMBL4507303", "about": "“Data for DCP probe TP-004” (2021)", "key": {"[1]": {"target": "MAP kinase-interacting serine/threonine-protein kinase 2 (Homo sapiens) (UniProt Q9HBH9)", "sequence (Q9HBH9 whole entry, looked up)": "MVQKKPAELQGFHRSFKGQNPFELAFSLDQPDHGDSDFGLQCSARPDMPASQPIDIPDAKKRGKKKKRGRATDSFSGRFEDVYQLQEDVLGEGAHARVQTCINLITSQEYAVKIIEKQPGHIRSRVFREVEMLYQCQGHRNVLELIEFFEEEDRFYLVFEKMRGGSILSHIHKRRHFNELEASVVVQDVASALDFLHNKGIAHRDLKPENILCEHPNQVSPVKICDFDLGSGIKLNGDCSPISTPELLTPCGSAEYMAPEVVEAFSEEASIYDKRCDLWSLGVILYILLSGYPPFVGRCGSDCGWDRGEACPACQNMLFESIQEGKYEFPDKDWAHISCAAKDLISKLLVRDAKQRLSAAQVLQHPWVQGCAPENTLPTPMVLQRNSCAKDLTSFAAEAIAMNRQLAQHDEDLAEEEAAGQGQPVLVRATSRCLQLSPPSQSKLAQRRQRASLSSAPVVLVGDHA", "settings": "Compound concentration 1000.0 nM"}, "[2]": {"target": "Serine/threonine-protein kinase TAO1 (Homo sapiens) (UniProt Q7L7X3)", "settings": "Compound concentration 1000.0 nM"}, "[3]": {"target": "cGMP-dependent protein kinase 2 (Homo sapiens) (UniProt Q13237)", "settings": "Compound concentration 1000.0 nM"}, "[4]": {"target": "MAP kinase-interacting serine/threonine-protein kinase 1 (Homo sapiens) (UniProt Q9BUB5)", "settings": "Compound concentration 1000.0 nM"}, "[5]": {"test_system": "Phosphatidylinositol 4,5-bisphosphate 3-kinase catalytic subunit alpha isoform (Homo sapiens), P42336 [E545A]", "settings": "Compound concentration 1000.0 nM"}, "[6]": {"target": "Serine/threonine-protein kinase RIO1 (Homo sapiens) (UniProt Q9BRS2)", "sequence (Q9BRS2 whole entry)": "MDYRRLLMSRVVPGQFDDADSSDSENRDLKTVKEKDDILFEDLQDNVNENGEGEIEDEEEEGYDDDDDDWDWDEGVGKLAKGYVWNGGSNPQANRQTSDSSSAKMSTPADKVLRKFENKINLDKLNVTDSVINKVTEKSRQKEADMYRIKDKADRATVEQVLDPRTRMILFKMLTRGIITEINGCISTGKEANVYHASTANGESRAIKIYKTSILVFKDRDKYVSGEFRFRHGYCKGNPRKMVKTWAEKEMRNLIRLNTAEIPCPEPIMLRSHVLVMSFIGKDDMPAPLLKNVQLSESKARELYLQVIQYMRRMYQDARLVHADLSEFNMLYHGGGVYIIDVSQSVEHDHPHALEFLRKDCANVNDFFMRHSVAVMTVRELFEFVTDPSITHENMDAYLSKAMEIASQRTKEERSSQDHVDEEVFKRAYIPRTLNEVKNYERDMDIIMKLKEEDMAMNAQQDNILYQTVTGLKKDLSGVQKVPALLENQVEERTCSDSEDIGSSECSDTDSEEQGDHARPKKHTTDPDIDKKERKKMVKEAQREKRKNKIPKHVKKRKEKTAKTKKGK", "settings": "Compound concentration 1000.0 nM"}, "[7]": {"target": "GABA-A receptor; anion channel (Rattus norvegicus) (UniProt O09028+P15431+P18506+P18508+P19969+P20236+P23574+P23576+P28471+P28473+P30191+P62813+P63079+P63138+Q91ZM7+Q9ES14)", "settings": "Compound concentration 10.0 uM"}, "[8]": {"target": "Tyrosine-protein kinase ITK/TSK (Homo sapiens) (UniProt Q08881)", "settings": "Compound concentration 1000.0 nM"}, "[9]": {"target": "Serine/threonine-protein kinase Sgk3 (Homo sapiens) (UniProt Q96BR1)", "settings": "Compound concentration 1000.0 nM"}, "[10]": {"target": "Proto-oncogene tyrosine-protein kinase ROS (Homo sapiens) (UniProt P08922)", "settings": "Compound concentration 1000.0 nM"}, "[11]": {"target": "Serine/threonine-protein kinase Nek4 (Homo sapiens) (UniProt P51957)", "settings": "Compound concentration 1000.0 nM"}, "[12]": {"test_system": "Receptor-type tyrosine-protein kinase FLT3 (Homo sapiens), P36888 [UNDEFINED MUTATION]", "sequence (P36888 whole entry, looked up, change not shown)": "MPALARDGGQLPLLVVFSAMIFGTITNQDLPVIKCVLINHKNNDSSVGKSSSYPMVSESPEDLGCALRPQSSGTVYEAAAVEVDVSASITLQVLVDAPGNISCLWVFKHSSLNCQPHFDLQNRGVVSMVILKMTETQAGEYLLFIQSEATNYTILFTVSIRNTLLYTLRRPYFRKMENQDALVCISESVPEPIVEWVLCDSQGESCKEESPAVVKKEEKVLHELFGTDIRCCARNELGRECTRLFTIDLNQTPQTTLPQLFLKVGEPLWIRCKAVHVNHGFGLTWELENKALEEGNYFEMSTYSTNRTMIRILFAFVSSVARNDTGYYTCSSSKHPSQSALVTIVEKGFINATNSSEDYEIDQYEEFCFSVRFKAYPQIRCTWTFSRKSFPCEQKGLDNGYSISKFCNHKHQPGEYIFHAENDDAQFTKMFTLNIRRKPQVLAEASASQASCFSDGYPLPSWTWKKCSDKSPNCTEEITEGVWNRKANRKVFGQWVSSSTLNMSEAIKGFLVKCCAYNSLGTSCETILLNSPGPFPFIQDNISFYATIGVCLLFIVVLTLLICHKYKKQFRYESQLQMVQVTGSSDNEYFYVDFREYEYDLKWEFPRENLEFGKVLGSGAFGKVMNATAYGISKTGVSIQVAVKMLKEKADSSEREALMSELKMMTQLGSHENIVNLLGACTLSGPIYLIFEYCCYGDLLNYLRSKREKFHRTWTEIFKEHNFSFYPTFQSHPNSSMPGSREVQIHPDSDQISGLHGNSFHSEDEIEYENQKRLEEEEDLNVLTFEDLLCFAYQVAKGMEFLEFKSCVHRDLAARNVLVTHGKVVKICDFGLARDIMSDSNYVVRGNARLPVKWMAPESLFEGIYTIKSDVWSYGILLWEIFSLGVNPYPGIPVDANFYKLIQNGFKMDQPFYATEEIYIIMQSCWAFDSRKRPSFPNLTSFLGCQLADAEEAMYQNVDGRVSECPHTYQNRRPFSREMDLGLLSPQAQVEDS", "settings": "Compound concentration 1000.0 nM"}, "[13]": {"target": "Serine/threonine-protein kinase PLK4 (Homo sapiens) (UniProt O00444)", "settings": "Compound concentration 1000.0 nM"}, "[14]": {"target": "Myosin light chain kinase family member 4 (Homo sapiens) (UniProt Q86YV6)", "settings": "Compound concentration 1000.0 nM"}, "[15]": {"target": "Ribosomal protein S6 kinase alpha-3 (Homo sapiens) (UniProt P51812)", "settings": "Compound concentration 1000.0 nM"}, "[16]": {"target": "Dual specificity protein kinase CLK4 (Homo sapiens) (UniProt Q9HAZ1)", "sequence (Q9HAZ1 whole entry, looked up)": "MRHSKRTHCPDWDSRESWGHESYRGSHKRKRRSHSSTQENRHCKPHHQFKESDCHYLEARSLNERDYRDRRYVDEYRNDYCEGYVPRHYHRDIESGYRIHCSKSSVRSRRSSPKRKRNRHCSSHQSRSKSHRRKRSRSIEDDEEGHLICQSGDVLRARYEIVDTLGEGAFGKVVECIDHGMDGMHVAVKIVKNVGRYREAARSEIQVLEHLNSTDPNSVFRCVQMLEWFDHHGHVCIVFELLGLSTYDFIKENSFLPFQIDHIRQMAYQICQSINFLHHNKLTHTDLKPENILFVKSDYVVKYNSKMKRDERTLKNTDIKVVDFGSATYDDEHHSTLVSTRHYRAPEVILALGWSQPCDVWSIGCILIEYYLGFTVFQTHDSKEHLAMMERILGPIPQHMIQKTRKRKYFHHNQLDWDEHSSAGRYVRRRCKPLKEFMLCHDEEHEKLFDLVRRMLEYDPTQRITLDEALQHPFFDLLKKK", "settings": "Compound concentration 1000.0 nM"}, "[17]": {"test_system": "Tyrosine-protein kinase ABL1 (Homo sapiens), P00519 [Q252H]", "settings": "Compound concentration 1000.0 nM"}, "[18]": {"test_system": "Tyrosine-protein kinase ABL1 (Homo sapiens), P00519 [Q252H]", "settings": "Compound concentration 1000.0 nM", "remark": "listed apart in the source"}, "[19]": {"target": "Cyclin-dependent kinase 11A (Homo sapiens) (UniProt Q9UQ88)", "settings": "Compound concentration 1000.0 nM"}, "[20]": {"target": "AP2-associated protein kinase 1 (Homo sapiens) (UniProt Q2M2I8)", "settings": "Compound concentration 1000.0 nM"}, "[21]": {"target": "Mitogen-activated protein kinase kinase kinase kinase 3 (Homo sapiens) (UniProt Q8IVH8)", "settings": "Compound concentration 1000.0 nM"}, "[22]": {"target": "Uncharacterized serine/threonine-protein kinase SBK3 (Homo sapiens) (UniProt P0C264)", "sequence (P0C264 whole entry)": "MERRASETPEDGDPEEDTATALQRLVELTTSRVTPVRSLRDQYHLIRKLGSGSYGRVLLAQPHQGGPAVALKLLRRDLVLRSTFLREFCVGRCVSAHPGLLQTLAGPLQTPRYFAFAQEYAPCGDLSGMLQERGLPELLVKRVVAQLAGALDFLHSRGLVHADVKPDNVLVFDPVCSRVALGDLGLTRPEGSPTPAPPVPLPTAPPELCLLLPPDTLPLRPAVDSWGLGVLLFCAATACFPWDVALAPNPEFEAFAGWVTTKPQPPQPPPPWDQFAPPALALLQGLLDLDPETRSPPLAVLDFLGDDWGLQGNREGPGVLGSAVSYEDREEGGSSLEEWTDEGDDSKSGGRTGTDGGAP", "settings": "Compound concentration 1000.0 nM"}, "[23]": {"target": "Mitogen-activated protein kinase kinase kinase 19 (Homo sapiens) (UniProt Q56UN5)", "settings": "Compound concentration 1000.0 nM"}, "[24]": {"test_system": "Epidermal growth factor receptor (Homo sapiens), P00533 [UNDEFINED MUTATION]", "settings": "Compound concentration 1000.0 nM"}, "[25]": {"target": "Muscle, skeletal receptor tyrosine-protein kinase (Homo sapiens) (UniProt O15146)", "settings": "Compound concentration 1000.0 nM"}, "[26]": {"target": "Calcium/calmodulin-dependent protein kinase type II subunit alpha (Homo sapiens) (UniProt Q9UQM7)", "sequence (Q9UQM7 whole entry)": "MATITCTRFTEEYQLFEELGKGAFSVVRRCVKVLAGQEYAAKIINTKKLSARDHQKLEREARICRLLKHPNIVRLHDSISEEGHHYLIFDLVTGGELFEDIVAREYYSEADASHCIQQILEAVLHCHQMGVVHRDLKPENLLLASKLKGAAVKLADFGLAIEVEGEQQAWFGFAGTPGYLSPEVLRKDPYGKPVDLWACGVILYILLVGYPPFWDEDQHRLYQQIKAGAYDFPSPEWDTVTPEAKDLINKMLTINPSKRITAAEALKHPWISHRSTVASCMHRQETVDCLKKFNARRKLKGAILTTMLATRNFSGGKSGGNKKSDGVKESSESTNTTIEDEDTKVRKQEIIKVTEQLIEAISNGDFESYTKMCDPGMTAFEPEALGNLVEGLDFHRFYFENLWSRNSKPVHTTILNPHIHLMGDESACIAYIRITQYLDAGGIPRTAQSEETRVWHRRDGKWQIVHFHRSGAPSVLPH", "settings": "Compound concentration 1000.0 nM"}, "[27]": {"target": "Methionine aminopeptidase 2 (Homo sapiens, UniProt P50579)", "assay": "Biochemical activity-MetAP2 using Mn"}, "[28]": {"test_system": "Tyrosine-protein kinase ABL1 (Homo sapiens), P00519 [E255K]", "settings": "Compound concentration 1000.0 nM"}, "[29]": {"target": "Ribosomal protein S6 kinase alpha-2 (Homo sapiens) (UniProt Q15349)", "settings": "Compound concentration 1000.0 nM"}, "[30]": {"target": "Serine/threonine-protein kinase PAK 4 (Homo sapiens) (UniProt O96013)", "settings": "Compound concentration 1000.0 nM"}, "[31]": {"target": "High affinity nerve growth factor receptor (Homo sapiens) (UniProt P04629)", "settings": "Compound concentration 1000.0 nM"}, "[32]": {"test_system": "Phosphatidylinositol 4,5-bisphosphate 3-kinase catalytic subunit alpha isoform (Homo sapiens), P42336 [Q546K]", "settings": "Compound concentration 1000.0 nM"}, "[33]": {"test_system": "Tyrosine-protein kinase ABL1 (Homo sapiens), P00519 [T315I]", "settings": "Compound concentration 1000.0 nM"}, "[34]": {"target": "Homeodomain-interacting protein kinase 3 (Homo sapiens) (UniProt Q9H422)", "settings": "Compound concentration 1000.0 nM"}, "[35]": {"target": "Activin receptor type-1-like (Homo sapiens) (UniProt P37023)", "settings": "Compound concentration 1000.0 nM"}, "[36]": {"target": "Aurora kinase B (Homo sapiens) (UniProt Q96GD4)", "settings": "Compound concentration 1000.0 nM"}, "[37]": {"target": "Sodium-dependent serotonin transporter (Homo sapiens) (UniProt P31645)", "settings": "Compound concentration 10.0 uM"}, "[38]": {"target": "Fibroblast growth factor receptor 4 (Homo sapiens) (UniProt P22455)", "sequence (P22455 22-802 limits assumed)": "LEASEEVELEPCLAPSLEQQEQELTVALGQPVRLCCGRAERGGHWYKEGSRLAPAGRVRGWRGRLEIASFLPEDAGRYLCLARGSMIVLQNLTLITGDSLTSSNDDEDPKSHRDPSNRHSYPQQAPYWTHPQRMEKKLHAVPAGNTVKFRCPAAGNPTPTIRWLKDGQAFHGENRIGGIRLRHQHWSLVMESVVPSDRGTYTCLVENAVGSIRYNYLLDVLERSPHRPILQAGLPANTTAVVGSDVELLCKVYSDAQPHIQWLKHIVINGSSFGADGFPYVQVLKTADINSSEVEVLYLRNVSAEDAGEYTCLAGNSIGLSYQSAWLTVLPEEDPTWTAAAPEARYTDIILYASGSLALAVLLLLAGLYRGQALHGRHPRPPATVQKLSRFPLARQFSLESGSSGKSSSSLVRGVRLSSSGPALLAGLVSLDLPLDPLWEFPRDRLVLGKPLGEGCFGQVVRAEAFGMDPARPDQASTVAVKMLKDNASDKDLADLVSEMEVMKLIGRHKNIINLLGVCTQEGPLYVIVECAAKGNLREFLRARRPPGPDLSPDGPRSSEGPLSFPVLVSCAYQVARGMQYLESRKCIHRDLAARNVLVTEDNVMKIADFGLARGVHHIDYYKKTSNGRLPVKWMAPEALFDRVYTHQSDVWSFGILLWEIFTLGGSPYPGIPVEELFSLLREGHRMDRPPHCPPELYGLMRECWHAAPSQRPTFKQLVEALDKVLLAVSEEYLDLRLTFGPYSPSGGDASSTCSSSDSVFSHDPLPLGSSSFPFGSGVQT", "settings": "Compound concentration 1000.0 nM"}, "[39]": {"target": "Tyrosine-protein kinase receptor Tie-1 (Homo sapiens) (UniProt P35590)", "settings": "Compound concentration 1000.0 nM"}, "[40]": {"target": "Phosphatidylinositol 4,5-bisphosphate 3-kinase catalytic subunit gamma isoform (Homo sapiens) (UniProt P48736)", "settings": "Compound concentration 1000.0 nM"}, "[41]": {"target": "Mitogen-activated protein kinase kinase kinase 12 (Homo sapiens) (UniProt Q12852)", "sequence (Q12852 whole entry)": "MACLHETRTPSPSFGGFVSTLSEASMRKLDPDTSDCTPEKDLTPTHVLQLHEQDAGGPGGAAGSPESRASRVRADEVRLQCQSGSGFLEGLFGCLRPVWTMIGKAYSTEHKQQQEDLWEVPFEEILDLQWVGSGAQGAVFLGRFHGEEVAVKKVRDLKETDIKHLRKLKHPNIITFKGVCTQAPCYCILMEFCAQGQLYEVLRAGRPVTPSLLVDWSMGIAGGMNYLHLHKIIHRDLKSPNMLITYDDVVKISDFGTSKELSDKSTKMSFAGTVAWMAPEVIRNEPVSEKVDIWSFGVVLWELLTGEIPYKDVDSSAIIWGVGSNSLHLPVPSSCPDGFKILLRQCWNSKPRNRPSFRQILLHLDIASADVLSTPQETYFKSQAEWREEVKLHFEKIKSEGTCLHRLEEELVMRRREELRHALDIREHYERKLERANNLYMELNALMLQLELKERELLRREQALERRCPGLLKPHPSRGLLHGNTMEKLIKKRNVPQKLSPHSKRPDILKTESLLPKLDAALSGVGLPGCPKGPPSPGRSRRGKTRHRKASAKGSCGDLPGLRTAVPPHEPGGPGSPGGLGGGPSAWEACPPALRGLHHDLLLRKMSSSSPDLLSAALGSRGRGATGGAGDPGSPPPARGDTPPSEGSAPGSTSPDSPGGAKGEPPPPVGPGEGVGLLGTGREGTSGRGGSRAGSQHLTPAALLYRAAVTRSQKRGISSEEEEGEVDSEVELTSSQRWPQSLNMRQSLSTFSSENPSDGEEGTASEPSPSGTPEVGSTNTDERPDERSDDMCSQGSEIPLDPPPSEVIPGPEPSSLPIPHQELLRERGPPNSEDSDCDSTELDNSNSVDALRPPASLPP", "settings": "Compound concentration 1000.0 nM"}, "[42]": {"target": "RAF proto-oncogene serine/threonine-protein kinase (Homo sapiens) (UniProt P04049)", "settings": "Compound concentration 1000.0 nM"}, "[43]": {"target": "SRSF protein kinase 3 (Homo sapiens) (UniProt Q9UPE1)", "settings": "Compound concentration 1000.0 nM"}}, "note": "Active and inactive are the calls of the source. No cut-off for these calls is given here."}
{"smiles": "Cc1nc(N2CC[C@@H](O)C2)ncc1-c1cc(C(F)(F)F)cc2[nH]ncc12", "note": "[TP-004]", "values": [{"measurement": "residual activity", "setting": "[1]", "value": 76, "unit": "%"}, {"measurement": "residual activity", "setting": "[2]", "value": 91, "unit": "%"}, {"measurement": "residual activity", "setting": "[3]", "value": 100, "unit": "%"}, {"measurement": "residual activity", "setting": "[4]", "value": 61, "unit": "%"}, {"measurement": "residual activity", "setting": "[5]", "value": 97, "unit": "%"}, {"measurement": "residual activity", "setting": "[6]", "value": 100, "unit": "%"}, {"measurement": "inhibition", "setting": "[7]", "value": 16.2, "unit": "%"}, {"measurement": "residual activity", "setting": "[8]", "value": 64, "unit": "%"}, {"measurement": "residual activity", "setting": "[9]", "value": 70, "unit": "%"}, {"measurement": "residual activity", "setting": "[10]", "value": 86, "unit": "%"}, {"measurement": "residual activity", "setting": "[11]", "value": 81, "unit": "%"}, {"measurement": "residual activity", "setting": "[12]", "value": 69, "unit": "%"}, {"measurement": "residual activity", "setting": "[13]", "value": 93, "unit": "%"}, {"measurement": "residual activity", "setting": "[14]", "value": 100, "unit": "%"}, {"measurement": "residual activity", "setting": "[15]", "value": 58, "unit": "%"}, {"measurement": "residual activity", "setting": "[16]", "value": 92, "unit": "%"}, {"measurement": "residual activity", "setting": "[17]", "value": 79, "unit": "%"}, {"measurement": "residual activity", "setting": "[18]", "value": 91, "unit": "%"}, {"measurement": "residual activity", "setting": "[19]", "value": 100, "unit": "%"}, {"measurement": "residual activity", "setting": "[20]", "value": 100, "unit": "%"}, {"measurement": "residual activity", "setting": "[21]", "value": 100, "unit": "%"}, {"measurement": "residual activity", "setting": "[22]", "value": 100, "unit": "%"}, {"measurement": "residual activity", "setting": "[23]", "value": 67, "unit": "%"}, {"measurement": "residual activity", "setting": "[24]", "value": 83, "unit": "%"}, {"measurement": "residual activity", "setting": "[25]", "value": 85, "unit": "%"}, {"measurement": "residual activity", "setting": "[26]", "value": 100, "unit": "%"}, {"measurement": "IC50", "setting": "[27]", "value": "7 nM (active)"}, {"measurement": "residual activity", "setting": "[28]", "value": 77, "unit": "%"}, {"measurement": "residual activity", "setting": "[29]", "value": 100, "unit": "%"}, {"measurement": "residual activity", "setting": "[30]", "value": 100, "unit": "%"}, {"measurement": "residual activity", "setting": "[31]", "value": 56, "unit": "%"}, {"measurement": "residual activity", "setting": "[32]", "value": 82, "unit": "%"}, {"measurement": "residual activity", "setting": "[33]", "value": 69, "unit": "%"}, {"measurement": "residual activity", "setting": "[34]", "value": 54, "unit": "%"}, {"measurement": "residual activity", "setting": "[35]", "value": 100, "unit": "%"}, {"measurement": "residual activity", "setting": "[36]", "value": 100, "unit": "%"}, {"measurement": "inhibition", "setting": "[37]", "value": -6.93, "unit": "%"}, {"measurement": "residual activity", "setting": "[38]", "value": 90, "unit": "%"}, {"measurement": "residual activity", "setting": "[39]", "value": 91, "unit": "%"}, {"measurement": "residual activity", "setting": "[40]", "value": 82, "unit": "%"}, {"measurement": "residual activity", "setting": "[41]", "value": 99, "unit": "%"}, {"measurement": "residual activity", "setting": "[42]", "value": 100, "unit": "%"}, {"measurement": "residual activity", "setting": "[43]", "value": 84, "unit": "%"}]}
